Reference: ChEMBL document CHEMBL1201862, “PubChem BioAssay data set” (2004)
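Exposure lasted 48 hours, with cells grown in 96-well plates and compounds tested at five concentrations. GI50: concentration for 50% inhibition of growth.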 Calls of active or inactive are those of the source. Cut-off read from the data, not from the text of the source: active = GI50 up to about 1.1 µM and inactive = higher.

Assays:
Assay in all cases: growth of human tumour cells (NCI), 48 h
[1] = test system: SF-539
[2] = test system: IGROV-1
[3] = test system: HT-29
[4] = test system: UACC-62
[5] = test system: SK-OV-3
[6] = test system: SNB-75
[7] = test system: SF-268
[8] = test system: UO-31
[9] = test system: M14
[10] = test system: OVCAR-5
[11] = test system: NCI-H522
[12] = test system: TK-10
[13] = test system: U-251
[14] = test system: RXF 393
[15] = test system: SK-MEL-28
[16] = test system: SR

Row | Compound | GI50 [1] | GI50 [2] | GI50 [3] | GI50 [4] | GI50 [5] | GI50 [6] | GI50 [7] | GI50 [8] | GI50 [9] | GI50 [10] | GI50 [11] | GI50 [12] | GI50 [13] | GI50 [14] | GI50 [15] | GI50 [16]
1 | O=CC[C@H]1CCc2ccccc2C12CCC(=O)CC2 | 6.21 µM (inactive) | > 100 µM (inactive) | 47.9 µM (inactive) | 92 µM (inactive) | > 100 µM (inactive) | 52.8 µM (inactive) | 76.6 µM (inactive) | 33.7 µM (inactive) | 86.3 µM (inactive) | > 100 µM (inactive) | 43.2 µM (inactive) |  |  |  |  | 
2 | CC(=O)Nc1ccc(C2C(C(=O)Nc3ccccc3)=C(C)NC(C)=C2C(=O)Nc2ccccc2)cc1 | > 100 µM (inactive) | > 100 µM (inactive) | > 100 µM (inactive) | > 80.5 µM (inactive) | > 100 µM (inactive) | > 100 µM (inactive) | > 100 µM (inactive) | > 100 µM (inactive) | > 100 µM (inactive) | > 100 µM (inactive) | 64 µM (inactive) | > 100 µM (inactive) | > 100 µM (inactive) | > 100 µM (inactive) | > 100 µM (inactive) | 
3 | O=C1C2C(C(=O)N1c1ccccc1)C1c3ccccc3C2C2C(=O)N(c3ccccc3)C(=O)C21 (stereo unspecified) | 3.56 µM (inactive) | > 100 µM (inactive) | 26.6 µM (inactive) | 6.78 µM (inactive) | 8.22 µM (inactive) | 3.73 µM (inactive) | 5.56 µM (inactive) | 12.7 µM (inactive) | 2.85 µM (inactive) | 15.1 µM (inactive) | 2.46 µM (inactive) | > 100 µM (inactive) | 2.82 µM (inactive) | 6.04 µM (inactive) | 26.2 µM (inactive) | 
4 | CC(C)(C)OC(=O)C1=C(O)C(C(=O)OC(C)(C)C)C23CCCCC12C(C(=O)OC(C)(C)C)C(O)=C3C(=O)OC(C)(C)C (stereo unspecified) | > 100 µM (inactive) | > 100 µM (inactive) | > 100 µM (inactive) | > 100 µM (inactive) | > 100 µM (inactive) | > 100 µM (inactive) | > 100 µM (inactive) | > 100 µM (inactive) | > 100 µM (inactive) | > 100 µM (inactive) | > 100 µM (inactive) | > 100 µM (inactive) | > 100 µM (inactive) | > 100 µM (inactive) |  | > 100 µM (inactive)
5 | O=C1C2=C(c3ccccc31)C(c1ccccc1Cl)NC(S)=N2 (stereo unspecified) | 97.1 µM (inactive) | 56.8 µM (inactive) | 51.9 µM (inactive) | 34.6 µM (inactive) | > 100 µM (inactive) | 26.9 µM (inactive) | 51.5 µM (inactive) | 30.6 µM (inactive) | 51.8 µM (inactive) | > 100 µM (inactive) | 31.8 µM (inactive) | 75.2 µM (inactive) | 77.6 µM (inactive) |  | 55.5 µM (inactive) | 
6 | CCOC(=O)C(=O)Nc1c(CC)cccc1C(C)C | > 100 µM (inactive) | > 100 µM (inactive) | > 100 µM (inactive) | > 100 µM (inactive) | > 100 µM (inactive) | > 100 µM (inactive) | > 100 µM (inactive) | > 100 µM (inactive) | > 100 µM (inactive) | > 100 µM (inactive) |  | > 100 µM (inactive) | > 100 µM (inactive) | > 100 µM (inactive) | > 100 µM (inactive) | 0.0151 µM (active)
7 | COC(=O)c1oc([N+](=O)[O-])c(-c2ccccc2)c1-c1ccccc1 | > 100 µM (inactive) | > 100 µM (inactive) | 88.3 µM (inactive) | 67 µM (inactive) | > 100 µM (inactive) | > 100 µM (inactive) | > 100 µM (inactive) | > 100 µM (inactive) | > 100 µM (inactive) | > 100 µM (inactive) | > 100 µM (inactive) | > 100 µM (inactive) | > 100 µM (inactive) |  | > 100 µM (inactive) | 
8 | N#Cc1c(N)c(C(=O)O)nn(-c2cccc(C(F)(F)F)c2)c1=O | > 100 µM (inactive) | > 100 µM (inactive) | > 100 µM (inactive) | 76.9 µM (inactive) | > 100 µM (inactive) | 14 µM (inactive) | > 100 µM (inactive) | 76.7 µM (inactive) | > 100 µM (inactive) | > 100 µM (inactive) | 39 µM (inactive) | > 100 µM (inactive) | > 100 µM (inactive) | 52.5 µM (inactive) | > 100 µM (inactive) | > 100 µM (inactive)
9 | C=CCn1c2c(sc1=S)C(S)NC=N2 (stereo unspecified) | 85.1 µM (inactive) | 88.5 µM (inactive) | > 100 µM (inactive) | 27.5 µM (inactive) | > 100 µM (inactive) | > 100 µM (inactive) | 4.65 µM (inactive) | 34.1 µM (inactive) | > 100 µM (inactive) | > 100 µM (inactive) | 34.8 µM (inactive) | > 100 µM (inactive) | 32.6 µM (inactive) | > 100 µM (inactive) | > 100 µM (inactive) | 91.8 µM (inactive)
